According to PubChem BioAssay (NCI):
Several values for one entry are separate records, joined by “and”; a condition that tells them apart may be missing. Equal entries are not always repeated.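 Assay format: 96-well plates, 48-hour exposure. The concentration for 50% growth inhibition is given as GI50. TGI marks complete inhibition of growth.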

What was measured:
Experiment in all cases: growth of human tumour cells (NCI), 48 h
[1] = tested on: 786-0 renal
[2] = tested on: A549 NSCLC
[3] = tested on: COLO 205 colon
[4] = tested on: HCC-2998 colon
[5] = tested on: SK-MEL-2 melanoma
[6] = tested on: SK-MEL-28 melanoma
[7] = tested on: SK-MEL-5 melanoma
[8] = tested on: SK-OV-3 ovarian
[9] = tested on: HCT-116 colon
[10] = tested on: RPMI-8226 leukemia

| Structure (SMILES) | GI50 [1] | TGI [1] | GI50 [2] | TGI [2] | GI50 [3] | TGI [3] | GI50 [4] | TGI [4] | GI50 [5] | TGI [5] | GI50 [6] | TGI [6] | GI50 [7] | TGI [7] | GI50 [8] | TGI [8] | GI50 [9] | TGI [9] | GI50 [10] | TGI [10] |
| --- | --- | --- | --- | --- | --- | --- | --- | --- | --- | --- | --- | --- | --- | --- | --- | --- | --- | --- | --- | --- |
| COc1cc(/C=C/c2cc(/C=C/c3ccc(O)c(OC)c3)n(-c3ccccc3)n2)ccc1O | 0.582 µM | 1.83 µM | 0.405 µM | 2.16 µM | 1.77 µM | 3.31 µM | 0.605 µM | 2.46 µM | 0.266 µM | 2.03 µM | 0.386 µM | 2.72 µM | 0.252 µM | 1.36 µM | 0.334 µM | 1.27 µM |  |  |  |  |
| COc1cc2c3c(n(C)c(=O)c2cc1OC)-c1cc2c(cc1/C3=C\CCCN1C(=O)c3ccccc3C1=O)OCO2 | > 40 µM | > 40 µM | 22 µM | > 40 µM | > 40 µM | > 40 µM |  |  |  |  | > 40 µM | > 40 µM | 21.7 µM | > 40 µM | > 40 µM | > 40 µM | 26.2 µM | > 40 µM |  |  |
| Cn1c(N2NC(=O)C(N=Nc3ccc(S(N)(=O)=O)cc3)C2=O)nc(-c2ccco2)c(C#N)c1=O (stereo not drawn) | > 50 µM | > 50 µM | > 50 µM | > 50 µM | 3.18 µM | 11.8 µM |  |  | > 50 µM | > 50 µM | 11.7 µM | 45.5 µM | 35.3 µM | > 50 µM | > 50 µM | > 50 µM | 15.4 µM | > 50 µM | 4.98 µM | 30.2 µM |
| COC(=O)C1=C(C(=O)OC)C2C=CC1C1C(Cl)=C(Cl)C21 (stereo not drawn) |  | > 100 µM |  | > 100 µM |  | > 100 µM |  | > 100 µM |  | > 100 µM |  | > 100 µM |  | > 100 µM |  | > 100 µM |  |  |  | > 100 µM |
| Nc1ccn(C2O[C@H](CO)[C@@H](O)[C@@H]2O)c(=O)n1 (stereo partly drawn) |  | > 100 µM | 24.6 µM | > 100 µM | 51.8 µM | > 100 µM | 68.5 µM | > 100 µM |  | > 100 µM |  | > 100 µM |  | > 100 µM |  | > 100 µM | 24.2 µM | > 100 µM |  |  |
| O=[N+]([O-])/C=C\c1ccc(Cl)c(Cl)c1 | 1.89 µM | 3.56 µM | 2.37 µM | 5.43 µM | 3.48 µM | 12.8 µM |  |  | 2.56 µM | 7.61 µM | 2.48 µM | 6.54 µM | 3.57 µM | 14 µM | 14.4 µM | 27.4 µM |  |  | 0.249 µM | 0.624 µM |
| CCCCNC1=C(C(=O)OCC)C(=O)CO1 |  | > 100 µM |  | > 100 µM |  | > 100 µM |  | > 100 µM |  | > 100 µM |  | > 100 µM |  | > 100 µM |  | > 100 µM |  |  |  | > 100 µM |
| O=C1C=CC(=Nc2ccc3c(c2)C(Br)c2ccccc2-3)O1 (stereo not drawn) |  | > 100 µM |  | > 100 µM |  | > 100 µM |  | > 100 µM |  |  |  | > 100 µM |  |  |  | > 100 µM |  | > 100 µM |  | > 100 µM |
| CC1=C(C(=O)Nc2ccc([N+](=O)[O-])cc2)C(c2ccc(N(C)C)cc2)C(C(=O)Nc2ccc([N+](=O)[O-])cc2)=C(C)N1 |  | 57.6 µM |  | > 100 µM |  | 33.7 µM |  | 25.8 µM |  | 29.8 µM |  | 28.2 µM |  | 32.1 µM |  | 80 µM |  |  |  | 43.2 µM |
| CCCCN(CCCC)C(=O)C(=O)C(C#N)c1ccc(C)cc1 (stereo not drawn) |  | > 100 µM |  | > 100 µM |  |  |  | > 100 µM |  | > 100 µM |  | > 100 µM |  | > 100 µM |  |  |  | > 100 µM |  | > 100 µM |
| CCOC(=O)/C=C(/C(=O)OCC)n1cc(Cl)c(=O)n(CC(=O)OCC)c1=O | 2.78 µM | 2.48 µM and 7.5 µM | 23.4 µM | 18.1 µM and 67 µM | 1.32 µM | 2.81 µM and 2.59 µM |  |  | 26.2 µM | 11.2 µM and 46.3 µM | 20.3 µM | 10.5 µM and 42.2 µM |  | 9.28 µM and 30.6 µM | 41.4 µM | > 100 µM | 13.7 µM | 9.67 µM and 28 µM |  | 5.73 µM |
| COc1cc(C2c3cc4c(cc3C(NCC(O)CO)C3COC(=O)[C@H]23)OCO4)cc(OC)c1OC (stereo partly drawn) |  | > 100 µM |  |  |  | 0.364 µM |  | > 100 µM |  |  |  | > 100 µM |  |  |  | > 100 µM |  |  |  | > 100 µM |
| COc1ccc2c(c1)c(-c1nc(-c3cn(C)c4ncccc34)cs1)cn2CCCN1CCCCC1 | 1.59 µM | 2.95 µM | 1.87 µM | 3.46 µM |  |  | 1.56 µM | 3.06 µM | 2.07 µM | 4.46 µM | 1.76 µM | 3.29 µM | 1.79 µM | 3.25 µM | 1.83 µM | 3.53 µM | 1.68 µM | 3.05 µM | 2.19 µM | 4.64 µM |
| O=C1/C(=C/c2ccc(Cl)cc2Cl)N=C(c2ccccc2)N1Cc1ccco1 | 19.8 µM | 41.2 µM | 27.1 µM | 71 µM |  |  | 26.7 µM | 76.1 µM | 15.8 µM | 48.5 µM |  |  | 15.8 µM | 80.9 µM |  |  | 20.7 µM | 47.1 µM | 23.8 µM | 92 µM |
| COC(=O)C[C@H]1CCC2(OCCO2)[C@]1(C)C(=O)OC |  | > 100 µM |  | > 100 µM |  | > 100 µM |  |  |  | > 100 µM |  | > 100 µM |  | > 100 µM |  | > 100 µM |  | > 100 µM |  | > 100 µM |
| O=C(CI)NC1Oc2ccccc2-c2oc(=O)c(-c3ccccc3)cc21 (stereo not drawn) | 0.441 µM | 1.58 µM | 2.36 µM | 6.16 µM | 1.81 µM | 3.92 µM | 8.46 µM | 26.6 µM | 2.17 µM | 5.43 µM | 1.81 µM | 3.31 µM | 3.26 µM | 11.4 µM | 1.83 µM | 3.48 µM |  |  | 2.08 µM | 4.79 µM |
| CC12CC[C@@H](C(C)(C)O)C1[C@@H](O)CC1(C)C2CCC2[C@@]3(C)CC[C@H](O)C(C)(C)C3C(O)C[C@]21C (stereo partly drawn) |  | 33.8 µM |  | 29.7 µM |  | 66.7 µM |  | 36.2 µM |  | 36.8 µM |  | 40.2 µM |  | 21.3 µM |  |  |  | 31.3 µM |  | > 100 µM |
| COc1ccc2cc1Oc1ccc(cc1)CC1c3cc(c(OC)cc3CCN1C)Oc1c3c(cc4c1C(C2)N(C)CC4)OCO3 (stereo not drawn) |  | 25.3 µM |  | 30.6 µM |  | 18.4 µM |  | 24.2 µM |  | 15.8 µM |  | 12.1 µM |  | 25.1 µM |  |  |  | 26.8 µM |  |  |
